From PubChem BioAssay (NCI)
Where “and” joins values, the source holds several entries; their conditions need not be identical. Equal entries are not always repeated.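 Each compound was tested at five concentrations against cells in 96-well plates for 48 hours. The concentration for 50% growth inhibition is given as GI50. TGI marks complete inhibition of growth.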

Legend:
Assay in all cases: inhibition of tumour cell growth, NCI panel, 48 h
[1] = tested on: A498 renal
[2] = tested on: COLO 205 colon
[3] = tested on: DU-145 prostate
[4] = tested on: EKVX NSCLC
[5] = tested on: HCC-2998 colon
[6] = tested on: HOP-62 NSCLC
[7] = tested on: IGROV1 ovarian
[8] = tested on: MDA-MB-435
[9] = tested on: OVCAR-3 ovarian
[10] = tested on: SK-OV-3 ovarian
[11] = tested on: T-47D breast

Compound | TGI [1] [µM] | GI50 [2] [µM] | TGI [2] [µM] | TGI [3] [µM] | TGI [4] [µM] | GI50 [5] [µM] | TGI [5] [µM] | TGI [6] [µM] | TGI [7] [µM] | TGI [8] [µM] | TGI [9] [µM] | TGI [10] [µM] | TGI [11] [µM] | GI50 [1] | GI50 [7] | GI50 [8] | GI50 [9] | GI50 [11]
CCCC(=O)O | 10400 | 2550 | 9160 | 13200 | > 18700 | 10800 | > 18700 | > 18700 | > 18700 | > 18700 | > 18700 | > 18700 | 9400 |  |  |  |  | 
O=C(c1ccccc1)c1ccc2c(c1)nc1n2C(c2c(Cl)cccc2Cl)SC1 (configuration not stated) | > 100 |  | > 100 | > 100 | > 100 |  | > 100 | > 100 | > 100 | > 100 | > 100 | > 100 | > 100 |  |  |  |  | 
C=CCC1(O)c2ccccc2C(=O)c2c(O)ccc(O)c21 (configuration not stated) | 25.8 |  | 26.9 | 38 | 57 |  | 15 | > 86.8 | > 100 | 6.43 | > 57.6 | 40.7 | > 59.2 |  |  |  |  | 
COC(=O)c1c2c(cc3c1CC1(Cc4ccccc4C1=O)C3)CCC2 (configuration not stated) | > 100 |  | 23.4 | > 100 | > 100 |  | > 100 | > 100 | > 100 | 40.3 | > 100 | > 100 | > 100 |  |  |  |  | 
Nc1nc(Cl)cc(NCC2(O)CC(CO)C2)n1 (configuration not stated) | > 100 |  | > 100 | > 100 | > 100 |  | > 100 | > 100 | > 100 | > 100 | > 100 | > 100 | > 100 |  |  |  |  | 
O=S(=O)(Oc1ccc2oc3ccccc3c2c1-c1c(OS(=O)(=O)C(F)(F)F)ccc2oc3ccccc3c12)C(F)(F)F | > 100 |  | > 100 | > 100 | > 100 |  | > 100 | > 100 | > 100 | > 100 | > 100 | > 100 | > 100 |  |  |  |  | 
OCC1OC(c2scc3c(=S)nc[nH]c23)C(O)C1O (configuration not stated) | > 54.1 |  | 33.5 | 19.5 | > 100 |  | > 97.2 | > 100 | 46.5 | > 100 | 8.33 | 35.4 | 9.53 |  |  |  |  | 
O=C(Cc1ccccc1)NCCc1ccc(O)c(O)c1 | > 100 |  | > 100 | > 100 | > 100 |  | > 100 | > 100 | > 100 | 33.8 | > 100 | > 100 | > 100 |  |  |  |  | 
CCOC(=O)c1cccc(NC(=O)CCl)c1 | 29.2 |  | 23.5 | 22.7 | 8.9 |  | 7.93 | 6.15 | 8.11 | 7.41 | 4.44 | 15.3 | 10.1 |  |  |  |  | 
CCc1nn(CN2CCN(C)CC2)c(=S)n1/N=C\c1ccc(-c2ccc([N+](=O)[O-])cc2)o1 | 54.7 |  |  | > 100 | > 100 |  | > 100 | > 100 | > 100 | > 100 | > 100 | > 100 | 68.5 |  |  |  |  | 
O=c1cc(CNC2CCCC2)[nH]c(=O)[nH]1 | > 100 |  | > 100 | > 100 | > 100 |  | > 100 | > 100 | > 100 | > 100 | > 100 | > 100 | > 100 |  |  |  |  | 
O=C1N[C@H]2c3c(Cl)sc(Cl)c3/C(=N/O)[C@H]2O1 | > 100 |  | > 100 | > 100 | > 100 |  | > 100 | > 100 | > 100 | > 100 | > 100 | > 100 | > 100 |  |  |  |  | 
O=c1[nH]c(=O)n(C2CC(O)C(CO)O2)cc1I (configuration not stated) | > 100 |  | > 100 | > 100 | > 100 |  | > 100 | > 100 | > 100 | > 100 | > 100 | > 100 | > 100 |  |  |  |  | 
CC1=NN(c2nc(N)nc(-c3ccccc3S(N)(=O)=O)n2)C(C)(C)C1 | 64.5 |  |  | > 100 | > 100 |  | > 100 | > 100 | > 100 | > 100 | > 100 | > 100 | > 100 |  |  |  |  | 
O=C(O)[C@H]1[C@@H](C2CCCCC2)O[C@@H](C2CCCCC2)O[C@H]1C(F)(F)F | 35.9 |  | 77.9 | > 100 | 43.1 |  | 38.8 | 50.6 | 35.9 | 35.5 | 39 | > 100 | > 100 |  |  |  |  | 
O=C1NC(N/N=C\C(O)C(O)C(O)CO)=N/C1=C/c1ccccc1 (configuration not stated) | > 100 |  | > 100 | > 100 | > 100 |  | > 100 | > 100 | > 100 | > 100 | > 100 | > 100 | > 100 | > 100 µM and 39.3 µM | > 100 µM and 43.3 µM | > 100 µM and 49.6 µM | > 100 µM and 47.6 µM | > 100 µM and 49.2 µM
CCOc1cc2c(cc1O)/C(=N\N)C[C@@H]1[C@@H]2CC[C@]2(C)[C@@H](O)CC[C@@H]12 | > 100 |  | > 56.5 | > 66.8 | > 100 |  | 12.8 | > 100 | 39.2 | 4.95 | 12.4 | > 100 | > 39.5 |  |  |  |  | 
